Measurements reported in patent publication US20140228314A1, “METHOD FOR PREPARATION OF CHITOSAN OLiGOSACCHARIDES COMPOSITION AND MIXTURE OF CHITOSAN OLiGOSACCHARIDES PREPARED THEREFROM” (KUNPOONG BIO CO., LTD, priority 2013, published 2014).

The molecules below were run on SD rats (assay: Inhibition of postprandial blood glucose rise per saccharide (sucrose load)). Conditions: 100 mg/kg oral with 2 g/kg sucrose, control 207.8.
Format: in vivo, rat
Protocol: To SD rats, 100 mg/kg (based on body weight) of each of standard substances from monosaccharide to tetra-saccharide and 2 g/kg (based on body weight) of sucrose were orally administered by 1 ml/rat using an oral administration sonde. At 30 minutes, 60 minutes and 120 minutes after the oral administration, blood was collected from the tail vein of each SD rat and a change in blood glucose concentration in venous blood was measured using a blood glucose meter (CareSens II).

SMILES | blood glucose at 30 minutes after the meal [mg/dL]
N[C@H]1[C@H](O[C@H]2[C@H](O)[C@@H](N)C(O)O[C@@H]2CO)O[C@H](CO)[C@@H](O)[C@@H]1O (stereo partly drawn) [disaccharide] | 177.6
N[C@H]1C(O)O[C@H](CO)[C@@H](O)[C@@H]1O (stereo partly drawn) [monosaccharide] | 210.7
N[C@H]1[C@H](O[C@H]2[C@H](O)[C@@H](N)[C@H](O[C@H]3[C@H](O)[C@@H](N)C(O)O[C@@H]3CO)O[C@@H]2CO)O[C@H](CO)[C@@H](O)[C@@H]1O (stereo partly drawn) [trisaccharide] | 179.4
